According to PubChem BioAssay (NCI):
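All cell lines were grown in 96-well plates and treated with compound for 48 hours. At the TGI there is no net growth.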

Columns and labels:
Test in all cases: DTP human tumour cell line panel, 48 h
HCC-2998 colon = test system: HCC-2998 colon
OVCAR-8 ovarian = test system: OVCAR-8 ovarian
DU-145 prostate = test system: DU-145 prostate
MALME-3M melanoma = test system: MALME-3M melanoma
NCI-H460 lung = test system: NCI-H460 lung
CCRF-CEM leukemia = test system: CCRF-CEM leukemia
UACC-257 melanoma = test system: UACC-257 melanoma
SF-268 CNS = test system: SF-268 CNS
T-47D breast = test system: T-47D breast
TK-10 renal = test system: TK-10 renal
LOX IMVI melanoma = test system: LOX IMVI melanoma
SNB-19 CNS = test system: SNB-19 CNS
KM12 colon = test system: KM12 colon
SF-539 CNS = test system: SF-539 CNS
NCI/ADR-RES ovarian = test system: NCI/ADR-RES ovarian
OVCAR-3 ovarian = test system: OVCAR-3 ovarian
UO-31 renal = test system: UO-31 renal
HS 578T breast = test system: HS 578T breast
PC-3 prostate = test system: PC-3 prostate
NCI-H23 lung = test system: NCI-H23 lung
NCI-H226 lung = test system: NCI-H226 lung
SW-620 colon = test system: SW-620 colon
SF-295 CNS = test system: SF-295 CNS
HOP-62 NSCLC = test system: HOP-62 NSCLC
SK-MEL-28 melanoma = test system: SK-MEL-28 melanoma
MCF7 breast = test system: MCF7 breast
OVCAR-5 ovarian = test system: OVCAR-5 ovarian
ACHN renal = test system: ACHN renal
MDA-MB-435 = test system: MDA-MB-435
NCI-H522 lung = test system: NCI-H522 lung
BT-549 breast = test system: BT-549 breast
SK-MEL-2 melanoma = test system: SK-MEL-2 melanoma
IGROV1 ovarian = test system: IGROV1 ovarian
HCT-116 colon = test system: HCT-116 colon
U251 CNS = test system: U251 CNS
A549 NSCLC = test system: A549 NSCLC
M14 melanoma = test system: M14 melanoma
RXF 393 renal = test system: RXF 393 renal
MDA-N = test system: MDA-N
EKVX NSCLC = test system: EKVX NSCLC
CAKI-1 renal = test system: CAKI-1 renal
HT29 colon = test system: HT29 colon
MOLT-4 leukemia = test system: MOLT-4 leukemia
OVCAR-4 ovarian = test system: OVCAR-4 ovarian
HOP-92 NSCLC = test system: HOP-92 NSCLC
K-562 leukemia = test system: K-562 leukemia
SK-OV-3 ovarian = test system: SK-OV-3 ovarian
SN12C renal = test system: SN12C renal
SK-MEL-5 melanoma = test system: SK-MEL-5 melanoma
SNB-75 CNS = test system: SNB-75 CNS
RPMI-8226 leukemia = test system: RPMI-8226 leukemia
UACC-62 melanoma = test system: UACC-62 melanoma
COLO 205 colon = test system: COLO 205 colon
MDA-MB-231 breast = test system: MDA-MB-231 breast
HCT-15 colon = test system: HCT-15 colon
786-0 renal = test system: 786-0 renal

Structure (SMILES): CC1(C(=O)O)CCC(C(=O)O)C(C)(C)O1 (centres undefined)
- TGI (HCC-2998 colon): > 100 µM
- TGI (OVCAR-8 ovarian): > 100 µM
- TGI (DU-145 prostate): > 100 µM
- TGI (MALME-3M melanoma): > 100 µM
- TGI (NCI-H460 lung): > 100 µM
- TGI (CCRF-CEM leukemia): > 100 µM
- TGI (UACC-257 melanoma): > 100 µM
- TGI (SF-268 CNS): > 100 µM
- TGI (T-47D breast): > 100 µM
- TGI (TK-10 renal): > 100 µM
- TGI (LOX IMVI melanoma): > 100 µM
- TGI (SNB-19 CNS): > 100 µM
- TGI (KM12 colon): > 100 µM
- TGI (SF-539 CNS): > 100 µM
- TGI (NCI/ADR-RES ovarian): > 100 µM
- TGI (OVCAR-3 ovarian): > 100 µM
- TGI (UO-31 renal): > 100 µM
- TGI (HS 578T breast): > 100 µM
- TGI (PC-3 prostate): > 100 µM
- TGI (NCI-H23 lung): > 100 µM
- TGI (NCI-H226 lung): > 100 µM
- TGI (SW-620 colon): > 100 µM
- TGI (SF-295 CNS): > 100 µM
- TGI (HOP-62 NSCLC): > 100 µM
- TGI (SK-MEL-28 melanoma): > 100 µM
- TGI (MCF7 breast): > 100 µM
- TGI (OVCAR-5 ovarian): > 100 µM
- TGI (ACHN renal): > 100 µM
- TGI (MDA-MB-435): > 100 µM
- TGI (NCI-H522 lung): > 100 µM
- TGI (BT-549 breast): > 100 µM
- TGI (SK-MEL-2 melanoma): > 100 µM
- TGI (IGROV1 ovarian): > 100 µM
- TGI (HCT-116 colon): > 100 µM
- TGI (U251 CNS): > 100 µM
- TGI (A549 NSCLC): > 100 µM
- TGI (M14 melanoma): > 100 µM
- TGI (RXF 393 renal): > 100 µM
- TGI (MDA-N): > 100 µM
- TGI (EKVX NSCLC): > 100 µM
- TGI (CAKI-1 renal): > 100 µM
- TGI (HT29 colon): > 100 µM
- TGI (MOLT-4 leukemia): > 100 µM
- TGI (OVCAR-4 ovarian): > 100 µM
- TGI (HOP-92 NSCLC): > 100 µM
- TGI (K-562 leukemia): > 100 µM
- TGI (SK-OV-3 ovarian): > 100 µM
- TGI (SN12C renal): > 100 µM
- TGI (SK-MEL-5 melanoma): > 100 µM
- TGI (SNB-75 CNS): > 100 µM
- TGI (RPMI-8226 leukemia): > 100 µM
- TGI (UACC-62 melanoma): > 100 µM
- TGI (COLO 205 colon): > 100 µM

Structure (SMILES): CC1=C[C@H](O)[C@@]2(C)[C@@H]([C@@H]1C)[C@H]1CC[C@@H]3[C@@]4(C)CC[C@H](O)C(C)(C)[C@@H]4CC[C@@]3(C)[C@]1(C)C[C@@H]2O
- TGI (HCC-2998 colon): 33 µM
- TGI (OVCAR-8 ovarian): 48 µM
- TGI (DU-145 prostate): 31 µM
- TGI (MALME-3M melanoma): 40.7 µM
- TGI (NCI-H460 lung): 33.4 µM
- TGI (CCRF-CEM leukemia): 40.5 µM
- TGI (UACC-257 melanoma): 34.5 µM
- TGI (SF-268 CNS): 25.3 µM
- TGI (T-47D breast): 28.9 µM
- TGI (TK-10 renal): 36.8 µM
- TGI (MDA-MB-231 breast): 35.1 µM
- TGI (LOX IMVI melanoma): 54 µM
- TGI (SNB-19 CNS): 30.1 µM
- TGI (KM12 colon): 39.2 µM
- TGI (NCI/ADR-RES ovarian): 44.5 µM
- TGI (OVCAR-3 ovarian): 31.4 µM
- TGI (UO-31 renal): 33.2 µM
- TGI (HS 578T breast): 55 µM
- TGI (PC-3 prostate): 35.1 µM
- TGI (NCI-H23 lung): 45.3 µM
- TGI (NCI-H226 lung): 45.7 µM
- TGI (SW-620 colon): 47.3 µM
- TGI (SF-295 CNS): 31.1 µM
- TGI (HOP-62 NSCLC): 33.4 µM
- TGI (SK-MEL-28 melanoma): 34.4 µM
- TGI (OVCAR-5 ovarian): 29.4 µM
- TGI (MDA-MB-435): 39.3 µM
- TGI (NCI-H522 lung): 38 µM
- TGI (BT-549 breast): 45.1 µM
- TGI (SK-MEL-2 melanoma): 38.4 µM
- TGI (IGROV1 ovarian): 41.2 µM
- TGI (HCT-116 colon): 25.1 µM
- TGI (U251 CNS): 35.2 µM
- TGI (HCT-15 colon): 41.3 µM
- TGI (A549 NSCLC): 26.9 µM
- TGI (M14 melanoma): 31.6 µM
- TGI (RXF 393 renal): 34.1 µM
- TGI (786-0 renal): 28.2 µM
- TGI (MDA-N): 29.7 µM
- TGI (EKVX NSCLC): 25.6 µM
- TGI (CAKI-1 renal): 36.6 µM
- TGI (HT29 colon): 27.1 µM
- TGI (MOLT-4 leukemia): 34.5 µM
- TGI (OVCAR-4 ovarian): 33.7 µM
- TGI (HOP-92 NSCLC): 29.6 µM
- TGI (K-562 leukemia): 48.2 µM
- TGI (SK-OV-3 ovarian): 35.7 µM
- TGI (SN12C renal): 29.2 µM
- TGI (SK-MEL-5 melanoma): 30.4 µM
- TGI (UACC-62 melanoma): 35.3 µM
- TGI (COLO 205 colon): 37.9 µM
